{
  "source": "paper PMC2769490",
  "about": "(Journal of the American Chemical Society, 2009)",
  "target": "rabbit muscle actin (Oryctolagus cuniculus, UniProt P68135)",
  "experiment": "microcalorimetry",
  "format": "binding",
  "data": [
    {"smiles": "O=C(c1ccccc1O)c1[nH]c(Cl)c(Cl)c1-n1c(C(=O)c2ccccc2O)cc(Cl)c1Cl", "note": "[compound 6, marinopyrrole A]", "values": [
      {"measurement": "Kd", "value": "120 ± 200", "unit": "nM"}
    ]}
  ]
}
